Experimental data from paper PMC5308240, “A Novel Toxin from Haplopelma lividum Selectively Inhibits the NaV1.8 Channel and Possesses Potent Analgesic Efficacy” (Toxins, 2016).
Values joined by “and” are separate entries in the source; they are usually repeats but may differ in a detail not shown here. Equal values may be shown once.

Tests used:
mice [1] = experiment: Tail-flicking test; details: mouse, in vivo, ip
Procedure: Mice with pain threshold of 4–6 s were selected for the tail-flicking test. […] A photothermal pain detector (YLS-12A, Jinan, Shandong, China) was used to measure the pain threshold of mice subjected to intense heat and the light beam of the detector was focused on the middle of mouse tail. All of the animals were intraperitoneally injected with saline containing different concentrations of samples and control group received the same volume of saline. Tail withdrawal latency was measured as the time taken to withdraw the tail from the light beam.
(§1) The results are expressed as the mean ± standard error of the mean (SEM). Statistical significance was calculated using one- or two-way analysis of variance followed by the Student-Newman-Keuls and Bonferroni’s post hoc tests. Significance was defined as p < 0.05.

mice [2] = experiment: Formalin-induced paw licking; details: mouse, in vivo, ip
Procedure: A formalin test was performed according to the method described by Owoyele et al.. Mice were intraperitoneally (i.p.) injected with test samples dissolved in 100 μL of saline and positive control animals were intraperitoneally injected with morphine dissolved in saline. The control group received the same volume of saline. Animals were injected with 20 μL of 5% formalin at the plantar surface of right hind paw after intraperitoneally injected with test samples. They were then placed into open polyvinyl cages (20 cm × 40 cm × 15 cm) individually. The time spent for licking the injected paw by each mouse was recorded by a digital video camera (early phase or neurogenic pain, 0–15 min post-injection and late phase or inflammatory pain, 15–30 min post-injection).
as §1

mice [3] = experiment: Hot plate test; details: mouse, in vivo
Procedure: A hot plate apparatus (model HZ66-ZH-YLS-6B, Shanghai, China), maintained at 55 ± 1 °C, was used to test the pain in response to a thermal stimulus. Mice in the control condition showing initial nociceptive responses between 5 and 10 s were selected for the experiment. The latency to the sign of hind paw licking or jumping to avoid heat nociception was taken as the index of the nociceptive threshold. […] A group of mice treated with morphine dissolved in physiological saline was used as a positive control.
as §1

`CN1CC[C@]23c4c5ccc(O)c4O[C@H]2[C@@H](O)C=C[C@H]3[C@H]1C5` [morphine] was tested, and the tail withdrawal latency (mice [1]) was 6.8 s and 8.9 s and 11.3 s, the “paw licking time, early phase” value (mice [2]) was 94 s and 71 s and 60 s and the “paw licking time, late phase” value (mice [2]) was 421 s and 275 s and 211 s. For the same molecule, the hot plate latency (mice [3]) was 12.5 s and 14.3 s and 18.6 s.
